In the NIST ThermoML archive (doi:10.1016/j.fluid.2018.09.026):
Where “and” joins values, the source holds several entries; their conditions need not be identical. Equal entries are not always repeated. ± gives the expanded uncertainty stated by the source.

Conditions: Liquid; for mass density: 333.15 K, Vibrating tube method; for viscosity: Vibrating wire viscometry

Compound `OCCOCCOCCO` [triethylene glycol] has a mass density (2100 kPa) of 1092.7 ± 4.4 kg/m3, a mass density (3070 kPa) of 1093.2 ± 4.4 kg/m3 and a mass density (5060 kPa) of 1094.2 ± 4.4 kg/m3. The mass density (6980 kPa) was 1095.2 ± 4.4 kg/m3, the mass density (9970 kPa) was 1096.6 ± 4.4 kg/m3 and the mass density (14840 kPa) was 1099 ± 4.4 kg/m3. The mass density (19660 kPa) was 1101.3 ± 4.4 kg/m3, the mass density (24670 kPa) was 1103.7 ± 4.4 kg/m3 and the mass density (29610 kPa) was 1106 ± 4.4 kg/m3. For the same compound, the mass density (34530 kPa) was 1108.2 ± 4.5 kg/m3, the mass density (39400 kPa) was 1110.3 ± 4.5 kg/m3 and the mass density (44280 kPa) was 1112.5 ± 4.5 kg/m3. It also gave a mass density (49110 kPa) of 1114.5 ± 4.5 kg/m3, a mass density (54040 kPa) of 1116.5 ± 4.5 kg/m3 and a mass density (59060 kPa) of 1118.6 ± 4.5 kg/m3. The mass density (63830 kPa) was 1120.5 ± 4.5 kg/m3, the mass density (68770 kPa) was 1122.4 ± 4.5 kg/m3 and the viscosity (333.21 K, 150 kPa) was 9.306 ± 0.45 mPa·s [middle of 4 runs]. For the same compound, the viscosity (333.21 K, 170 kPa) was 9.339 ± 0.47 mPa·s [middle of 7 runs], the viscosity (333.21 K, 750 kPa) was 9.338 ± 0.39 mPa·s and the viscosity (333.21 K, 760 kPa) was 9.422 ± 0.4 mPa·s and 9.347 ± 0.39 mPa·s. The viscosity (333.21 K, 790 kPa) was 9.383 ± 0.4 mPa·s, the viscosity (333.21 K, 1460 kPa) was 9.386 ± 0.38 mPa·s [middle of 4 runs] and the viscosity (333.21 K, 1470 kPa) was 9.379 ± 0.38 mPa·s and 9.375 ± 0.38 mPa·s and 9.363 ± 0.38 mPa·s. For the same compound, the viscosity (333.21 K, 4930 kPa) was 9.61 ± 0.39 mPa·s, the viscosity (333.21 K, 4940 kPa) was 9.609 ± 0.39 mPa·s and 9.653 ± 0.39 mPa·s and the viscosity (333.21 K, 4950 kPa) was 9.655 ± 0.39 mPa·s [middle of 4 runs]. For the same compound, the viscosity (333.21 K, 4970 kPa) was 9.688 ± 0.4 mPa·s and 9.672 ± 0.39 mPa·s, the viscosity (333.21 K, 4980 kPa) was 9.595 ± 0.39 mPa·s and 9.684 ± 0.4 mPa·s and the viscosity (333.21 K, 4990 kPa) was 9.704 ± 0.4 mPa·s. The viscosity (333.21 K, 5030 kPa) was 9.613 ± 0.39 mPa·s, the viscosity (333.21 K, 9610 kPa) was 10.02 ± 0.41 mPa·s and the viscosity (333.21 K, 9620 kPa) was 9.96 ± 0.41 mPa·s and 9.899 ± 0.4 mPa·s. The viscosity (333.21 K, 9680 kPa) was 9.927 ± 0.4 mPa·s, the viscosity (333.21 K, 9690 kPa) was 9.942 ± 0.4 mPa·s and 9.978 ± 0.41 mPa·s and the viscosity (333.21 K, 9700 kPa) was 9.918 ± 0.4 mPa·s. For the same compound, the viscosity (333.21 K, 9720 kPa) was 9.986 ± 0.41 mPa·s, the viscosity (333.21 K, 20900 kPa) was 10.78 ± 0.44 mPa·s and the viscosity (333.21 K, 20930 kPa) was 10.79 ± 0.44 mPa·s. The viscosity (333.21 K, 20940 kPa) was 10.78 ± 0.44 mPa·s and 10.79 ± 0.44 mPa·s, the viscosity (333.21 K, 29220 kPa) was 11.36 ± 0.65 mPa·s and the viscosity (333.21 K, 29260 kPa) was 11.37 ± 0.66 mPa·s. It also gave a viscosity (333.21 K, 29290 kPa) of 11.28 ± 0.68 mPa·s, a viscosity (333.21 K, 29370 kPa) of 11.48 ± 0.68 mPa·s and a viscosity (333.21 K, 29400 kPa) of 11.32 ± 0.62 mPa·s. It also gave a viscosity (333.21 K, 29410 kPa) of 11.32 ± 0.62 mPa·s, a viscosity (333.21 K, 29450 kPa) of 11.36 ± 0.63 mPa·s and a viscosity (333.21 K, 29460 kPa) of 11.34 ± 0.64 mPa·s. The viscosity (333.21 K, 29490 kPa) was 11.36 ± 0.64 mPa·s, the viscosity (333.21 K, 29520 kPa) was 11.49 ± 0.64 mPa·s and the viscosity (333.21 K, 29730 kPa) was 11.35 ± 0.75 mPa·s. It also gave a viscosity (333.21 K, 29740 kPa) of 11.35 ± 0.75 mPa·s, a viscosity (333.21 K, 29760 kPa) of 11.47 ± 0.75 mPa·s and a viscosity (333.21 K, 29770 kPa) of 11.42 ± 0.75 mPa·s. The viscosity (333.21 K, 37210 kPa) was 11.94 ± 0.49 mPa·s, the viscosity (333.21 K, 37260 kPa) was 12.04 ± 0.49 mPa·s and the viscosity (333.21 K, 37430 kPa) was 11.99 ± 0.49 mPa·s. For the same compound, the viscosity (333.21 K, 37490 kPa) was 12.07 ± 0.49 mPa·s, the viscosity (333.21 K, 38020 kPa) was 12.13 ± 0.49 mPa·s and the viscosity (333.21 K, 38150 kPa) was 12.06 ± 0.49 mPa·s. The viscosity (333.21 K, 38270 kPa) was 12.05 ± 0.49 mPa·s, the viscosity (333.21 K, 47910 kPa) was 12.77 ± 0.56 mPa·s and the viscosity (333.21 K, 48010 kPa) was 12.75 ± 0.56 mPa·s. It also gave a viscosity (333.21 K, 48280 kPa) of 12.76 ± 0.56 mPa·s, a viscosity (333.21 K, 49590 kPa) of 12.91 ± 0.57 mPa·s and a viscosity (333.21 K, 49640 kPa) of 13.01 ± 0.57 mPa·s. For the same compound, the viscosity (333.21 K, 49670 kPa) was 12.99 ± 0.57 mPa·s, the viscosity (333.21 K, 49700 kPa) was 12.96 ± 0.57 mPa·s and the viscosity (333.21 K, 49730 kPa) was 12.91 ± 0.56 mPa·s. For the same compound, the viscosity (333.21 K, 68790 kPa) was 14.61 ± 0.66 mPa·s, the viscosity (333.21 K, 69130 kPa) was 14.52 ± 0.63 mPa·s and the viscosity (333.21 K, 69650 kPa) was 14.74 ± 0.63 mPa·s. For the same compound, the viscosity (343.08 K, 200 kPa) was 6.978 ± 0.29 mPa·s and 6.969 ± 0.29 mPa·s and 6.931 ± 0.29 mPa·s, the viscosity (343.08 K, 1160 kPa) was 6.971 ± 0.28 mPa·s [middle of 4 runs] and the viscosity (343.08 K, 4890 kPa) was 7.185 ± 0.29 mPa·s. For the same compound, the viscosity (343.08 K, 4900 kPa) was 7.179 ± 0.29 mPa·s and 7.239 ± 0.29 mPa·s and 7.214 ± 0.29 mPa·s, the viscosity (343.08 K, 9750 kPa) was 7.392 ± 0.3 mPa·s and the viscosity (343.08 K, 9760 kPa) was 7.403 ± 0.3 mPa·s. The viscosity (343.08 K, 9770 kPa) was 7.403 ± 0.3 mPa·s, the viscosity (343.08 K, 20580 kPa) was 8.071 ± 0.33 mPa·s and 7.965 ± 0.32 mPa·s and the viscosity (343.08 K, 20590 kPa) was 8.036 ± 0.33 mPa·s and 7.937 ± 0.32 mPa·s. For the same compound, the viscosity (343.08 K, 20600 kPa) was 8.08 ± 0.33 mPa·s, the viscosity (343.08 K, 30330 kPa) was 8.459 ± 0.34 mPa·s and the viscosity (343.08 K, 30350 kPa) was 8.469 ± 0.34 mPa·s and 8.515 ± 0.35 mPa·s and 8.474 ± 0.34 mPa·s. It also gave a viscosity (343.08 K, 30390 kPa) of 8.519 ± 0.35 mPa·s, a viscosity (343.08 K, 39560 kPa) of 8.994 ± 0.36 mPa·s and a viscosity (343.08 K, 39590 kPa) of 9.055 ± 0.37 mPa·s. It also gave a viscosity (343.08 K, 39640 kPa) of 9.065 ± 0.37 mPa·s, a viscosity (343.08 K, 50360 kPa) of 9.671 ± 0.47 mPa·s and a viscosity (343.08 K, 50420 kPa) of 9.687 ± 0.39 mPa·s. For the same compound, the viscosity (343.08 K, 50470 kPa) was 9.572 ± 0.39 mPa·s, the viscosity (343.08 K, 50570 kPa) was 9.608 ± 0.47 mPa·s and the viscosity (343.08 K, 67230 kPa) was 10.62 ± 0.48 mPa·s.
